Values quoted from earlier work in US20050226899A1, “Cosmetic mask composition” (priority 2004, published 2005).

Test system: skin
Conditions: lotion, up to 5% by weight retinoic acid

## CC1=C(/C=C/C(C)=C/C=C/C(C)=C/C(=O)O)C(C)(C)CCC1 [retinoic acid]
  irritative phenomena: some treatments had to be interrupted due to the onset of significant irritative phenomena
